Test: Cytotoxicity against human 9KB cells
Assay type: functional

SMILES	ED50
CC(=O)OC(C)(C)/C=C/C(=O)[C@](C)(O)[C@H]1[C@H](O)C[C@@]2(C)[C@@H]3CC=C4[C@H](C[C@H](O)C(=O)C4(C)C)[C@]3(C)C(=O)C[C@]12C [CUCURBITACIN B]	<1 ×10⁻⁵ ug/ml
CC(=O)OC(C)(C)/C=C/C(=O)[C@@](C)(O)[C@H]1[C@H](O)C[C@@]2(C)[C@@H]3CC=C4[C@@H](CC(=O)[C@@H](O)C4(C)C)[C@]3(C)C(=O)C[C@]12C [ISOCUCURBITACIN B]	7.6 ×10⁻⁵ ug/ml

Source: ChEMBL document CHEMBL1151656, “Cucurbitacin B and isocucurbitacin B: cytotoxic components of Helicteres isora” (1985)
